Our source for the thermal conductivity values is the NIST ThermoML archive (doi:10.1021/je700176d).

± gives the expanded uncertainty stated by the source.

The conditions of the series: 101.33 kPa, Liquid, transient hot wire.

For `CCOS(=O)(=O)[O-].CCn1cc[n+](C)c1` [1-ethyl-3-methylimidazolium ethyl sulfate], the thermal conductivity stood at 0.182 ± 0.01 W/m/K (293 K); 0.181 ± 0.01 W/m/K (303 K); 0.181 ± 0.01 W/m/K (313 K); 0.179 ± 0.01 W/m/K (323 K); 0.179 ± 0.01 W/m/K (333 K); 0.178 ± 0.01 W/m/K (343 K). The thermal conductivity (353 K) amounted to 0.177 ± 0.01 W/m/K.

In the case of `CCCCCCCCn1cc[n+](C)c1.O=S(=O)([N-]S(=O)(=O)C(F)(F)F)C(F)(F)F`, the thermal conductivity runs as follows: (293 K) 0.128 ± 0.01 W/m/K; (303 K) 0.128 ± 0.01 W/m/K; (313 K) 0.128 ± 0.01 W/m/K; (323 K) 0.126 ± 0.01 W/m/K; (333 K) 0.126 ± 0.01 W/m/K; (343 K) 0.125 ± 0.01 W/m/K. The thermal conductivity (353 K) was 0.126 ± 0.01 W/m/K.

Turning to `CCCCCCCCCCn1cc[n+](C)c1.O=S(=O)([N-]S(=O)(=O)C(F)(F)F)C(F)(F)F`, the thermal conductivity by setting is: (293 K) 0.132 ± 0.01 W/m/K; (303 K) 0.131 ± 0.01 W/m/K; (313 K) 0.13 ± 0.01 W/m/K; (323 K) 0.129 ± 0.01 W/m/K; (333 K) 0.128 ± 0.01 W/m/K; (343 K) 0.128 ± 0.01 W/m/K. Moreover, the thermal conductivity (353 K) was found to be 0.128 ± 0.01 W/m/K.

As for `CCCCCC[n+]1ccn(C)c1.O=S(=O)([N-]S(=O)(=O)C(F)(F)F)C(F)(F)F`, the thermal conductivity reads like this: (293 K) 0.127 ± 0.01 W/m/K; (303 K) 0.127 ± 0.01 W/m/K; (313 K) 0.127 ± 0.01 W/m/K; (323 K) 0.126 ± 0.01 W/m/K; (333 K) 0.125 ± 0.01 W/m/K; (343 K) 0.125 ± 0.01 W/m/K. Besides, the thermal conductivity (353 K) is given as 0.125 ± 0.01 W/m/K.

With `CCCCCCCCCCCCCC[P+](CCCCCC)(CCCCCC)CCCCCC.O=S(=O)([N-]S(=O)(=O)C(F)(F)F)C(F)(F)F`, the thermal conductivity is 0.144 ± 0.01 W/m/K (293 K); 0.143 ± 0.01 W/m/K (303 K); 0.142 ± 0.01 W/m/K (313 K); 0.141 ± 0.01 W/m/K (323 K); 0.141 ± 0.01 W/m/K (333 K); 0.14 ± 0.01 W/m/K (343 K). Moreover, the thermal conductivity (353 K) was 0.139 ± 0.01 W/m/K.

For the compound `CCCC[N+]1(C)CCCC1.FC(F)(F)C(F)(F)[P-](F)(F)(F)(C(F)(F)C(F)(F)F)C(F)(F)C(F)(F)F`, the thermal conductivity (293 K) came out at 0.107 ± 0.01 W/m/K; the thermal conductivity (303 K) is on record as 0.106 ± 0.01 W/m/K; the thermal conductivity (313 K) stood at 0.106 ± 0.01 W/m/K; the thermal conductivity (323 K) was 0.105 ± 0.01 W/m/K; the thermal conductivity (333 K) is 0.105 ± 0.01 W/m/K; the thermal conductivity (343 K) worked out at 0.105 ± 0.01 W/m/K. The thermal conductivity (353 K) was found to be 0.105 ± 0.01 W/m/K.

With `CCCC[n+]1ccn(C)c1.O=S(=O)([N-]S(=O)(=O)C(F)(F)F)C(F)(F)F`, the thermal conductivity is given as 0.128 ± 0.01 W/m/K (293 K); 0.127 ± 0.01 W/m/K (303 K); 0.127 ± 0.01 W/m/K (313 K); 0.126 ± 0.01 W/m/K (323 K); 0.125 ± 0.01 W/m/K (333 K); 0.124 ± 0.01 W/m/K (343 K). Moreover, the thermal conductivity (353 K) was found to be 0.124 ± 0.01 W/m/K.

Take `CCCCn1cc[n+](C)c1.O=S(=O)([O-])C(F)(F)F` [1-butyl-3-methylimidazolium trifluoromethanesulfonate]: the thermal conductivity came to 0.147 ± 0.01 W/m/K (293 K); 0.146 ± 0.01 W/m/K (303 K); 0.145 ± 0.01 W/m/K (313 K); 0.144 ± 0.01 W/m/K (323 K); 0.144 ± 0.01 W/m/K (333 K); 0.143 ± 0.01 W/m/K (343 K). Moreover, the thermal conductivity (353 K) turned out to be 0.142 ± 0.01 W/m/K.

Take `CCCC[N+]1(C)CCCC1.O=S(=O)([N-]S(=O)(=O)C(F)(F)F)C(F)(F)F`: the thermal conductivity (293 K) was determined as 0.125 ± 0.01 W/m/K, the thermal conductivity (303 K) turned out to be 0.125 ± 0.01 W/m/K, the thermal conductivity (313 K) turned out to be 0.124 ± 0.01 W/m/K and the thermal conductivity (323 K) came to 0.124 ± 0.01 W/m/K.

Regarding `CCn1cc[n+](C)c1.O=S(=O)([N-]S(=O)(=O)C(F)(F)F)C(F)(F)F`, the thermal conductivity was 0.13 ± 0.01 W/m/K (293 K); 0.13 ± 0.01 W/m/K (303 K); 0.129 ± 0.01 W/m/K (313 K); 0.129 ± 0.01 W/m/K (323 K); 0.129 ± 0.01 W/m/K (333 K); 0.129 ± 0.01 W/m/K (343 K). Moreover, under “353 K”, the thermal conductivity is recorded as 0.128 ± 0.01 W/m/K.

Take `CCCCCCCCCCCCCC[P+](CCCCCC)(CCCCCC)CCCCCC.[Cl-]` [trihexyl(tetradecyl)phosphonium chloride]: the thermal conductivity stood at 0.161 ± 0.01 W/m/K (293 K); 0.16 ± 0.01 W/m/K (303 K); 0.159 ± 0.01 W/m/K (313 K); 0.157 ± 0.01 W/m/K (323 K); 0.157 ± 0.01 W/m/K (333 K); 0.156 ± 0.01 W/m/K (343 K). Also, the thermal conductivity (353 K) is 0.155 ± 0.01 W/m/K.
